What was measured:
Format in all cases: biochemical
[1] = target: T1, PaIMPDH (Pseudomonas aeruginosa IMPDH) (Pseudomonas aeruginosa, UniProt Q9HXM5); assay: IMPDH activity assay, guanine nucleotide titration (NADH fluorescence); settings: for effect in vitro on the activity: even at millimolar concentrations, in presence or absence of ATP; for effect on the catalytic activity in vitro: nucleotide alone (no ATP)
T1 construct: Open reading frames of the different enzymes were amplified by PCR using genomic DNA as template; 8xHis (N, cleaved yes); made in house; host or cells: E. coli BL21 (DE3)
T1 sequence (Q9HXM5 1-489): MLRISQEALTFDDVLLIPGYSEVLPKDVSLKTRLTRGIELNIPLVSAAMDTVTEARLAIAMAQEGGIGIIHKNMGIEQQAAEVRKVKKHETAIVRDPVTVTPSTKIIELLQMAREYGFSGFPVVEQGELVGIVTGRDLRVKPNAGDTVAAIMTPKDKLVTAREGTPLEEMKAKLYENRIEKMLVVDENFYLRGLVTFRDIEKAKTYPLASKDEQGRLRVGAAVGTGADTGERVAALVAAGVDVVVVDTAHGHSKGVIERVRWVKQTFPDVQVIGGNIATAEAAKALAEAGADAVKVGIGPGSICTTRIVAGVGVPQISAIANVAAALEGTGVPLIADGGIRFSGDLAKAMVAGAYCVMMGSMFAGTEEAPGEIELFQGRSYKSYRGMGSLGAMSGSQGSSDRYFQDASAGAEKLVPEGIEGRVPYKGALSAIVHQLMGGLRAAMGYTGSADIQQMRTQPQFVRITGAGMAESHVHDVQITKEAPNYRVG
Procedure: (§1) IMPDH activity was assayed using 384‐well microtiter plates by monitoring the appearance of NADH by fluorescence (λ exc = 340 nm and λ em = 460 nm, using a 10 nm slit window for both excitation and emission).
(§2) The total amount of MgCl2 was adjusted for each nucleotide concentration to keep 1 mM free Mg^2+ constant concentration, as previously described.[6] The experimental data were fitted to the Michaelis–Menten and allosteric sigmoidal equations using GraphPad Prism (GraphPad Software).

[2] = target: StcIMPDH (Streptomyces coelicolor IMPDH) (Streptomyces coelicolor, UniProt Q9L0I7); assay: as above; settings: for effect on the catalytic activity in vitro: nucleotide alone (no ATP); for K i,app: 0.25 mM ATP present
Chain of StcIMPDH (Streptomyces coelicolor IMPDH) (Q9L0I7 entry or part of it): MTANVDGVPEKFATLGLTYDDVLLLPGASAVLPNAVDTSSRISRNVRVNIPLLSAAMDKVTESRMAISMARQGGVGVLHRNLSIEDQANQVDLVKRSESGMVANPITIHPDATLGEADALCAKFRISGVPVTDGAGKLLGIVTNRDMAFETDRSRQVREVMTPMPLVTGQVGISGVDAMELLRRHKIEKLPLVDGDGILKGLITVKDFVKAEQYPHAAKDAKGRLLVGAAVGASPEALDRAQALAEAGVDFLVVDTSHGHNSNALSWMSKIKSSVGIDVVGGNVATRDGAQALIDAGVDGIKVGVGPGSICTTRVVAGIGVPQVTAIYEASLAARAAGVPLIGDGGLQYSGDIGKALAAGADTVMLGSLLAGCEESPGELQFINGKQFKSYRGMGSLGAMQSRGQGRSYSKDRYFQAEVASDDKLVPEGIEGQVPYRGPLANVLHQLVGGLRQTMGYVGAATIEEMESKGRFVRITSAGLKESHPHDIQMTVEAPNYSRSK
Procedure: as §1, §2

[3] = target: T2, BsIMPDH (Bacillus subtilis IMPDH) (Bacillus subtilis, UniProt P21879); assay: as above; settings: for effect on the catalytic activity in vitro: nucleotide alone (no ATP); for IC50: read-out: Estimated IC50; for K i,app: 0.25 mM ATP present
T2 construct: Open reading frames of the different enzymes were amplified by PCR using genomic DNA as template; 8xHis (N, cleaved yes); made in house; host or cells: E. coli BL21 (DE3)
T2 sequence (P21879 whole entry): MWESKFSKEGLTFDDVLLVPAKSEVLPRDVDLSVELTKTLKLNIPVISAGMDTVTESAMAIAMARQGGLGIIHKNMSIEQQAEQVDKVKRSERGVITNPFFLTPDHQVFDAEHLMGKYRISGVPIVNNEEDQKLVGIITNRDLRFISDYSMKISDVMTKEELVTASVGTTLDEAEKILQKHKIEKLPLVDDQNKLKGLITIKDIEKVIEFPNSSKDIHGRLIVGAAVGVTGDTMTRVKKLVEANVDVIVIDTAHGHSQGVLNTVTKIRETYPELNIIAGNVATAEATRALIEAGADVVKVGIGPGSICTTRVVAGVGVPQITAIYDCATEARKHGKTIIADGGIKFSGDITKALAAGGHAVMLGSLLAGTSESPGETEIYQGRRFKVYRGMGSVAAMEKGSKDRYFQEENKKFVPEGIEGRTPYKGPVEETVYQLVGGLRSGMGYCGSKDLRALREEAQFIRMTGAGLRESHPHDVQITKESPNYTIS
Procedure: as §1, §2

[4] = target: T3, EcIMPDH (Escherichia coli IMPDH) (Escherichia coli, UniProt P0ADG7); assay: as above; settings: for effect in vitro on the activity: even at millimolar concentrations, in presence or absence of ATP; for effect on the catalytic activity in vitro: nucleotide alone (no ATP)
T3 construct: Open reading frames of the different enzymes were amplified by PCR using genomic DNA as template; 8xHis (N, cleaved yes); made in house; host or cells: E. coli BL21 (DE3)
T3 sequence (P0ADG7 whole entry): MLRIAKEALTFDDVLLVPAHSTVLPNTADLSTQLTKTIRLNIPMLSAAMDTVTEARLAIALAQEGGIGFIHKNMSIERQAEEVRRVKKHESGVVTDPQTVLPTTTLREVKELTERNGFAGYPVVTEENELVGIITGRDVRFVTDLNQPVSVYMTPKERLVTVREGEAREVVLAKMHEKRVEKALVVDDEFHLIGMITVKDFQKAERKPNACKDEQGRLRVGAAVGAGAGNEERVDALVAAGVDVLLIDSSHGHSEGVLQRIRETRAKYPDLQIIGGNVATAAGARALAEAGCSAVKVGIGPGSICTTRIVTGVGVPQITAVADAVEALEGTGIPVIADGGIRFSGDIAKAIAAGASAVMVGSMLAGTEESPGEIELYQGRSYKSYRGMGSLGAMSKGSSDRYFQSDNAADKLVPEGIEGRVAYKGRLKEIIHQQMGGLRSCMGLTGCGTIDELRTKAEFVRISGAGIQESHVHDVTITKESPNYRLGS
Procedure: as §1, §2

[5] = target: T4, Helicobacter pylori IMPDH (HpIMPDH) (Helicobacter pylori, UniProt P56088); assay: Effects of guanine nucleotides on the catalytic activity of HpIMPDH in vitro; settings: 0.25 mM ATP + 0.5 mM (p)ppGpp, 32°C (Figure S12)
T4 construct: Open reading frames of the different enzymes were amplified by PCR using genomic DNA as template; 8xHis (N, cleaved yes); made in house; host or cells: E. coli BL21 (DE3)
T4 sequence (P56088 1-481): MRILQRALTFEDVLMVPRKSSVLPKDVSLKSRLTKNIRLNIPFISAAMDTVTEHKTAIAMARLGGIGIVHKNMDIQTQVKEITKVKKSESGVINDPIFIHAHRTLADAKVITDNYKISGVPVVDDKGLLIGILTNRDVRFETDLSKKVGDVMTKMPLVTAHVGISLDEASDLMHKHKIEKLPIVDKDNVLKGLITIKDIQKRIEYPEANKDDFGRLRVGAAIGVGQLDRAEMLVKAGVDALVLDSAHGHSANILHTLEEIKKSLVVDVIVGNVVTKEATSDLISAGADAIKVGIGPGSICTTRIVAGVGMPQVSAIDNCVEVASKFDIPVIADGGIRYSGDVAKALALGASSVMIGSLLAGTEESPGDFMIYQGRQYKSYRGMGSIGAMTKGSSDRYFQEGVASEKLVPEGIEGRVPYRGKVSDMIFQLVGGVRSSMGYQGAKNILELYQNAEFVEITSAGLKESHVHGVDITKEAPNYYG
Procedure: as §1
Supplemental Figure 12. Effects of guanine nucleotides on the catalytic activity of HpIMPDH in vitro.Normalized initialvelocity (V0) values calculated as the V0 in the absence of nucleotides divided by the corresponding values inthe presence of the indicated ones. The experiment was performed at 32 °C in buffer 100 mM Tr i s-HCl, pH 8.0, 100 mM KCl, 1 mM DTT, 1 mM free MgCl2, 50 nM enzyme, 0.5 mM NAD+ […]
Nucleotide concentrations were (from left to right): 0.5 mM
The Vo value used for normalization was 6.83 ± 0.1 nM/sec.
(1 picture or pasted object on this page, not shown here)

PaIMPDH = target: T5, PaIMPDH (Pseudomonas aeruginosa, UniProt Q9HXM5); assay: GTP titration curves at physiological ATP concentration (Km shift); settings: read-out: GTP concentration required to duplicate the Km value, constant 3 mM ATP, 0.5 mM NAD, 32°C
T5 construct: Open reading frames of the different enzymes were amplified by PCR using genomic DNA as template; 8xHis (N, cleaved yes); made in house; host or cells: E. coli BL21 (DE3)
Procedure: as §1
(§3) 32 °C in buffer 100 mM Tr i s-HCl,pH8.0,100 mM KCl, 1 mM DTT, 1 mM free MgCl2, […]

EcIMPDH = target: T6, EcIMPDH (Escherichia coli, UniProt P0ADG7); assay: as above; settings: read-out: GTP concentration needed to duplicate the Km value, constant 3 mM ATP, 0.5 mM NAD, 32°C
T6 construct: Open reading frames of the different enzymes were amplified by PCR using genomic DNA as template; 8xHis (N, cleaved yes); made in house; host or cells: E. coli BL21 (DE3)
T6 sequence (P0ADG7 whole entry): as the sequence (P0ADG7 whole entry) above
Procedure: as §1, §3

Row | Compound | effect in vitro on the activity [1] | effect on the catalytic activity in vitro [1] | IC50 [2] [µM] | inhibition of catalytic activity (potency range) ([2]; StcIMPDH, combined with ATP) | effect on the catalytic activity in vitro ([2]; StcIMPDH) | inhibition of catalytic activity (potency range) ([3]; BsIMPDH, combined with ATP) | effect on the catalytic activity in vitro ([3]; BsIMPDH) | IC50 [3] [µM] | effect in vitro on the activity [4] | effect on the catalytic activity in vitro [4] | K i,app ([1]; 0.25 mM ATP present) | K i,app ([2]; StcIMPDH) | K i,app ([3]; BsIMPDH) | K i,app ([4]; 0.25 mM ATP present) | effect on catalytic activity of HpIMPDH [5] | GTP concentration doubling Km (PaIMPDH) [µM] | GTP concentration doubling Km (EcIMPDH) [µM]
1 | Nc1nc2c(ncn2[C@@H]2O[C@H](COP(=O)(O)OP(=O)(O)O)[C@@H](OP(=O)(O)OP(=O)(O)O)[C@H]2O)c(=O)[nH]1 [ppGpp] | no detectable effect | no significant effect | 2 ± 0.03 | low micromolar range | no significant effect | low micromolar range | no significant effect | 8.9 ± 0.4 | no detectable effect | no significant effect |  |  |  |  |  |  | 
2 | Nc1nc2c(ncn2[C@@H]2O[C@H](COP(=O)(O)OP(=O)(O)O)[C@@H](O)[C@H]2O)c(=O)[nH]1 [GDP] |  | did not have a significant effect |  |  | did not have a significant effect |  | did not have a significant effect |  |  | did not have a significant effect | mid‐micromolar range | millimolar range | millimolar range | mid‐micromolar range |  |  | 
3 | (p)ppGpp |  |  |  |  |  |  |  |  |  |  |  |  |  |  | allosteric inhibition |  | 
4 | Nc1nc2c(ncn2[C@@H]2O[C@H](COP(=O)(O)OP(=O)(O)OP(=O)(O)O)[C@@H](OP(=O)(O)OP(=O)(O)O)[C@H]2O)c(=O)[nH]1 [pppGpp] | no detectable effect |  | 1.4 ± 0.03 |  |  |  |  | 11.4 ± 1.2 | no detectable effect |  |  |  |  |  |  |  | 
5 | Nc1nc2c(ncn2[C@@H]2O[C@H](COP(=O)(O)OP(=O)(O)OP(=O)(O)O)[C@@H](O)[C@H]2O)c(=O)[nH]1 [GTP] |  | did not have a significant effect |  |  | did not have a significant effect |  | did not have a significant effect |  |  | did not have a significant effect |  | millimolar range | millimolar range |  |  | 800 | 1300
